Literature values in patent US10098922B1, “Increasing telomere length in a cell” (priority 2017, dated 2018).

Legend:
rats = details: AC-11 80 mg/kg plus doxorubicin vs doxorubicin only
[1] = system: doxorubicin-induced leukopenia; details: rats, oral by gavage

Mean heart weight coefficient (rats)	Structure (SMILES)	Reversal of doxorubicin-induced leukopenia [1]
0.369%±0.022	COc1cccc2c1C(=O)c1c(O)c3c(c(O)c1C2=O)C[C@@](O)(C(=O)CO)C[C@@H]3O[C@H]1C[C@H](N)[C@H](O)[C@H](C)O1 [doxorubicin]	–
–	O=C(O)[C@]1(O)C[C@@H](O)[C@@H](O)[C@H](O)C1 [QA, quinic acid]	about as effective as C-MED-100®
–	N.O=C(O)C1(O)CC(O)C(O)C(O)C1 (stereo not drawn) [QAA]	about as effective as C-MED-100®
